Experimental data from patent publication US6380198B1 (Laboratoire Medidom S.A., priority 1997, dated 2002).
“And” between values parts separate entries of the source, which are not always exact repeats. Equal entries are not always repeated. Where two headings read alike, the source gives them in different places.

Tests used:
σ-1 receptors = molecular target: T1, σ-1 receptors (Oryctolagus cuniculus, UniProt G1SD54); experiment: [3H](+)-pentazocine receptor binding and competitive binding on irido-ciliary body membranes; set-up: species or system rabbit (New Zealand albino)
T1 construct: cell membranes obtained from the irido-ciliary body complex; from tissue; host or cells: rabbit irido-ciliary body, P2 membrane fraction
From the text: In order to identify the presence of a receptor sites in the eye the technique of “receptor binding” has been exploited. The latter has been carried out on cell membranes obtained from the irido-ciliary body complex. The irido-ciliary body complex had been explanted, after sacrifice, from male albino rabbits of the New Zealand strain. The tissue was homogenised in buffer and a fraction rich in cell membrane proteins was isolated, obtained by centrifugation. […] Aliquots of the said fraction of the homogenate containing 300 μg of total proteins were incubated with scalar amounts of [^3H](+)-pentazocine (which is used, for experimental purposes only, as a a ligand). The reaction was carried out at 37° C. for 150 minutes and then, after filtering, the radioactivity left on the filters was measured by liquid scintillation.

intraocular pressure [1] = experiment: Intraocular pressure in New Zealand albino rabbits after instillation of a σ ligand; format: in vivo, rabbit (New Zealand albino); details: 1% preparation, 50 μl in right conjunctival fornix; 60 minutes after instillation; p<0.01
Experimental: A 1% preparation of NANM was administered (50 μl) in the conjunctival fornix of the right eye of male albino rabbits of the New Zealand strain, after measuring the (baseline) intraocular pressure.

[2] = system: intraocular pressure of rabbits showing normal baseline intraocular pressure; experiment: Intraocular pressure in rabbits with normal intraocular pressure after topical instillation; format: in vivo, rabbit (Vienna Blue, pigmented)
intraocular pressure [3] = details: cited from earlier work
intraocular pressure [4] = details: general statement on the literature; cited from earlier work
[5] = system: cornea (corneal thickness)
[6] = system: intraocular pressure of rabbits with ocular hypertension; experiment: Intraocular pressure in rabbits with ocular hypertension induced by α-chymotrypsin; format: in vivo, rabbit (Vienna Blue, pigmented)
[7] = 50 μl eye-drops, 0.050% flunarizine, equimolar comparators, 0.5% timolol

T1 sequence (G1SD54 1-223): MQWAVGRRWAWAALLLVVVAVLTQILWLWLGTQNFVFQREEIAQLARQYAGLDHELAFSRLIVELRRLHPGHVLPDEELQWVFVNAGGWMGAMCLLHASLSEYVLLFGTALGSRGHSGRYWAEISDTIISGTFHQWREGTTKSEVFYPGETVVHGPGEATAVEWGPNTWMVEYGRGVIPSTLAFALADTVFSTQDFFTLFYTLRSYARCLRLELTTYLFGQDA

## C=CCN1CC[C@@]2(C)c3cc(O)ccc3C[C@@H]1[C@@H]2C [NANM, (+)-N-allil-nor-meth-azocine]
σ-1 receptors; competitive binding
  Classes of σ receptor sites bound (Hill coefficient analysis): interacts with one only class
σ-1 receptors; constant amount of radioligand, scalar amounts of competitor
  Displacement of [3H](+)-pentazocine in competitive binding: shift the radioactive ligands from the receptor sites
Intraocular pressure [1]
  Intraocular pressure versus vehicle: significantly reduced

## COc1ccc(CCN(C)CCCC(C#N)(c2ccc(OC)c(OC)c2)C(C)C)cc1OC (centres unmarked) [verapamil]
[2]; [7]
  Effect on intraocular pressure in rabbits with normal pressure, in words: neither the verapamil formulation nor the diltiazem formulation, both using the same vehicle as MEG 01, did produce any intraocular pressure decrease
[2]; Table 1, average ± S.D. of 4 rabbits, 30 min after instillation, 50 μl eye-drops: 0.050% flunarizine, 0.056% verapamil, 0.051% diltiazem, 0.043% nifedipine
  Intraocular pressure (mmHg) at the time (min): 30, average ± S.D.: 15 ± 1.3 mmHg
[2]; Table 1, average ± S.D. of 4 rabbits, 60 min after instillation, 50 μl eye-drops: 0.050% flunarizine, 0.056% verapamil, 0.051% diltiazem, 0.043% nifedipine
  Intraocular pressure (mmHg) at the time (min): 60, average ± S.D.: 14.7 ± 0.5 mmHg
[2]; Table 1, average ± S.D. of 4 rabbits, 90 min after instillation, 50 μl eye-drops: 0.050% flunarizine, 0.056% verapamil, 0.051% diltiazem, 0.043% nifedipine
  Intraocular pressure (mmHg) at the time (min): 90, average ± S.D.: 14 ± 1.0 mmHg
[2]; Table 1, average ± S.D. of 4 rabbits, 120 min after instillation, 50 μl eye-drops: 0.050% flunarizine, 0.056% verapamil, 0.051% diltiazem, 0.043% nifedipine
  Intraocular pressure (mmHg) at the time (min): 120, average ± S.D.: 15.7 ± 0.5 mmHg
[2]; Table 1, average ± S.D. of 4 rabbits, 180 min after instillation, 50 μl eye-drops: 0.050% flunarizine, 0.056% verapamil, 0.051% diltiazem, 0.043% nifedipine
  Intraocular pressure (mmHg) at the time (min): 180, average ± S.D.: 16.2 ± 0.5 mmHg
[2]; Table 1, average ± S.D. of 4 rabbits, 240 min after instillation, 50 μl eye-drops: 0.050% flunarizine, 0.056% verapamil, 0.051% diltiazem, 0.043% nifedipine
  Intraocular pressure (mmHg) at the time (min): 240, average ± S.D.: 16.5 ± 1.0 mmHg
[2]; Table 1, average ± S.D. of 4 rabbits, time 0 = 15 min before instillation (baseline), 50 μl eye-drops: 0.050% flunarizine, 0.056% verapamil, 0.051% diltiazem, 0.043% nifedipine
  Intraocular pressure (mmHg) at the time (min): 0, average ± S.D.: 16 ± 0.8 mmHg
[2]; Table 1, individual rabbit, right eye, 30 min after instillation, 50 μl eye-drops: 0.050% flunarizine, 0.056% verapamil, 0.051% diltiazem, 0.043% nifedipine
  Intraocular pressure (mmHg) at the time (min): 30: 16 mmHg and 14 mmHg and 17 mmHg and 15 mmHg
[2]; Table 1, individual rabbit, right eye, 60 min after instillation, 50 μl eye-drops: 0.050% flunarizine, 0.056% verapamil, 0.051% diltiazem, 0.043% nifedipine
  Intraocular pressure (mmHg) at the time (min): 60: 15 mmHg (3×) and 14 mmHg
[2]; Table 1, individual rabbit, right eye, 90 min after instillation, 50 μl eye-drops: 0.050% flunarizine, 0.056% verapamil, 0.051% diltiazem, 0.043% nifedipine
  Intraocular pressure (mmHg) at the time (min): 90: 15 mmHg (3×) and 13 mmHg
[2]; Table 1, individual rabbit, right eye, 120 min after instillation, 50 μl eye-drops: 0.050% flunarizine, 0.056% verapamil, 0.051% diltiazem, 0.043% nifedipine
  Intraocular pressure (mmHg) at the time (min): 120: 16 mmHg (3×) and 13 mmHg
[2]; Table 1, individual rabbit, right eye, 180 min after instillation, 50 μl eye-drops: 0.050% flunarizine, 0.056% verapamil, 0.051% diltiazem, 0.043% nifedipine
  Intraocular pressure (mmHg) at the time (min): 180: 16 mmHg (3×) and 17 mmHg
[2]; Table 1, individual rabbit, right eye, 240 min after instillation, 50 μl eye-drops: 0.050% flunarizine, 0.056% verapamil, 0.051% diltiazem, 0.043% nifedipine
  Intraocular pressure (mmHg) at the time (min): 240: 17 mmHg (3×) and 15 mmHg
[2]; Table 1, individual rabbit, right eye, time 0 = 15 min before instillation (baseline), 50 μl eye-drops: 0.050% flunarizine, 0.056% verapamil, 0.051% diltiazem, 0.043% nifedipine
  Intraocular pressure (mmHg) at the time (min): 0: 17 mmHg and 15 mmHg and 16 mmHg (2×)
Intraocular pressure [3]; Beatty et al. 1984
  Intraocular pressure after oral administration to rabbits: did not evidence any effect
  Intraocular pressure after topical administration to rabbits: increase in the intraocular pressure
Intraocular pressure [3]; Payene et al. 1990
  Intraocular pressure after systemic administration to rabbits: reduction in the intraocular pressure
  Intraocular pressure after topical administration to rabbits: did not detect any significant effect
Intraocular pressure [4]
  Intraocular pressure after administration to man: reduction of the intraocular pressure
[5]; individual rabbit, treated right eye (RE), 1 hour after single 50 μl instillation, 0.050% flunarizine, 0.056% verapamil, 0.051% diltiazem, 0.043% nifedipine
  Corneal thickness (mm): 1 hour: 0.376 mm and 0.398 mm and 0.387 mm and 0.401 mm
[5]; individual rabbit, treated right eye (RE), 2 hours after single 50 μl instillation, 0.050% flunarizine, 0.056% verapamil, 0.051% diltiazem, 0.043% nifedipine
  Corneal thickness (mm): 2 hours: 0.385 mm and 0.406 mm and 0.400 mm and 0.494 mm
[5]; individual rabbit, treated right eye (RE), 3 hours after single 50 μl instillation, 0.050% flunarizine, 0.056% verapamil, 0.051% diltiazem, 0.043% nifedipine
  Corneal thickness (mm): 3 hours: 0.383 mm and 0.402 mm (2×) and 0.410 mm
[5]; individual rabbit, treated right eye (RE), before single 50 μl instillation, 0.050% flunarizine, 0.056% verapamil, 0.051% diltiazem, 0.043% nifedipine
  Corneal thickness (mm): Baseline: 0.356 mm and 0.384 mm and 0.372 mm and 0.392 mm
[5]; ophthalmic solution containing 0.056% verapamil
  Increase in corneal thickness: 15-20 μm/hour
[5]; single 50 μl instillation, observed up to 3 hours
  Corneal swelling / alteration of corneal thickness, in words: caused comeal swelling
[6]; [7]
  Effect on intraocular pressure in rabbits with ocular hypertension, in words: do not show any significant reduction
[6]; Table 3, hypertensive rabbits, average ± S.D. of 4 rabbits, 30 min after instillation, 50 μl eye-drops: 0.050% flunarizine, 0.056% verapamil, 0.051% diltiazem, 0.043% nifedipine
  Intraocular pressure (mmHg) at the time (min): 30, average ± S.D.: 48.7 ± 6.5 mmHg
[6]; Table 3, hypertensive rabbits, average ± S.D. of 4 rabbits, 60 min after instillation, 50 μl eye-drops: 0.050% flunarizine, 0.056% verapamil, 0.051% diltiazem, 0.043% nifedipine
  Intraocular pressure (mmHg) at the time (min): 60, average ± S.D.: 50.0 ± 5.47 mmHg
[6]; Table 3, hypertensive rabbits, average ± S.D. of 4 rabbits, 90 min after instillation, 50 μl eye-drops: 0.050% flunarizine, 0.056% verapamil, 0.051% diltiazem, 0.043% nifedipine
  Intraocular pressure (mmHg) at the time (min): 90, average ± S.D.: 48.0 ± 5.94 mmHg
[6]; Table 3, hypertensive rabbits, average ± S.D. of 4 rabbits, 120 min after instillation, 50 μl eye-drops: 0.050% flunarizine, 0.056% verapamil, 0.051% diltiazem, 0.043% nifedipine
  Intraocular pressure (mmHg) at the time (min): 120, average ± S.D.: 48.5 ± 5.97 mmHg
[6]; Table 3, hypertensive rabbits, average ± S.D. of 4 rabbits, 180 min after instillation, 50 μl eye-drops: 0.050% flunarizine, 0.056% verapamil, 0.051% diltiazem, 0.043% nifedipine
  Intraocular pressure (mmHg) at the time (min): 180, average ± S.D.: 48.75 ± 6.39 mmHg
[6]; Table 3, hypertensive rabbits, average ± S.D. of 4 rabbits, 240 min after instillation, 50 μl eye-drops: 0.050% flunarizine, 0.056% verapamil, 0.051% diltiazem, 0.043% nifedipine
  Intraocular pressure (mmHg) at the time (min): 240, average ± S.D.: 49.5 ± 5.44 mmHg
[6]; Table 3, hypertensive rabbits, average ± S.D. of 4 rabbits, time 0 = 15 min before instillation (baseline), 50 μl eye-drops: 0.050% flunarizine, 0.056% verapamil, 0.051% diltiazem, 0.043% nifedipine
  Intraocular pressure (mmHg) at the time (min): 0, average ± S.D.: 49.0 ± 5.94 mmHg
[6]; Table 3, hypertensive rabbits, individual rabbit, right eye, 30 min after instillation, 50 μl eye-drops: 0.050% flunarizine, 0.056% verapamil, 0.051% diltiazem, 0.043% nifedipine
  Intraocular pressure (mmHg) at the time (min): 30: 55 mmHg and 48 mmHg and 40 mmHg and 52 mmHg
[6]; Table 3, hypertensive rabbits, individual rabbit, right eye, 60 min after instillation, 50 μl eye-drops: 0.050% flunarizine, 0.056% verapamil, 0.051% diltiazem, 0.043% nifedipine
  Intraocular pressure (mmHg) at the time (min): 60: 56 mmHg and 49 mmHg and 43 mmHg and 52 mmHg
[6]; Table 3, hypertensive rabbits, individual rabbit, right eye, 90 min after instillation, 50 μl eye-drops: 0.050% flunarizine, 0.056% verapamil, 0.051% diltiazem, 0.043% nifedipine
  Intraocular pressure (mmHg) at the time (min): 90: 55 mmHg and 46 mmHg and 41 mmHg and 50 mmHg
[6]; Table 3, hypertensive rabbits, individual rabbit, right eye, 120 min after instillation, 50 μl eye-drops: 0.050% flunarizine, 0.056% verapamil, 0.051% diltiazem, 0.043% nifedipine
  Intraocular pressure (mmHg) at the time (min): 120: 55 mmHg and 47 mmHg and 41 mmHg and 51 mmHg
[6]; Table 3, hypertensive rabbits, individual rabbit, right eye, 180 min after instillation, 50 μl eye-drops: 0.050% flunarizine, 0.056% verapamil, 0.051% diltiazem, 0.043% nifedipine
  Intraocular pressure (mmHg) at the time (min): 180: 57 mmHg and 46 mmHg and 42 mmHg and 50 mmHg
[6]; Table 3, hypertensive rabbits, individual rabbit, right eye, 240 min after instillation, 50 μl eye-drops: 0.050% flunarizine, 0.056% verapamil, 0.051% diltiazem, 0.043% nifedipine
  Intraocular pressure (mmHg) at the time (min): 240: 56 mmHg and 48 mmHg and 43 mmHg and 51 mmHg
[6]; Table 3, hypertensive rabbits, individual rabbit, right eye, time 0 = 15 min before instillation (baseline), 50 μl eye-drops: 0.050% flunarizine, 0.056% verapamil, 0.051% diltiazem, 0.043% nifedipine
  Intraocular pressure (mmHg) at the time (min): 0: 56 mmHg and 47 mmHg and 42 mmHg and 51 mmHg
